Source: ChEMBL document CHEMBL2176866, “Progress in the development and application of small molecule inhibitors of bromodomain-acetyl-lysine interactions” (J Med Chem, 2012)

What was measured:
[1] = AUC (infinity) in mouse; assay type: ADME, organism-based; set-up: time infinity; conditions: plasma
[2] = Half life in mouse; assay type: ADME, organism-based; conditions: in vivo

Compound | AUC(0-inf) [1] [µM·h] | half-life [2] [h]
COc1cc2c(cc1-c1c(C)noc1C)ncc1[nH]c(=O)n([C@H](C)c3ccccn3)c12 | 680 | 7.2
CCNC(=O)C[C@@H]1N=C(c2ccc(Cl)cc2)c2cc(OC)ccc2-n2c(C)nnc21 [MOLIBRESIB] | 40 | 1.6
